Data set [1] is described as follows: Half life in ICR mouse at 15 mg/kg, iv administered as single dose and measured for 8 hrs by LC-MS/MS analysis. It counts as ADME, organism-based. As to conditions: in vivo.
The test system of data set [2] is MDA-MB-231. In words: Downregulation of phosphorylated STAT3 protein expression in human MDA-MB-231 cells at 0.5 uM incubated for 24 hrs by Western blot analysis. It counts as functional, cell-based.
For data set [3], the system named is MDA-MB-231. In words: Inhibition of cell invasion in human MDA-MB-231 cells incubated for 48 hrs by crystal violet staining based transwell assay. It counts as functional. As to conditions: dose 1.25-10 µM.
Data set [4] deals with MDA-MB-231. Briefly: Inhibition of cell migration in human MDA-MB-231 cells incubated for 48 hrs by scratch wound healing assay. The data set is classed as functional, cell-based. Particulars: dose 1.25-10 µM.
The target in data set [5] is High affinity nerve growth factor receptor (Homo sapiens) (UniProt P04629). Briefly: Inhibition of human recombinant TRKA at 125 nM.
High affinity nerve growth factor receptor (Homo sapiens), sequence (P04629 33-796 limits assumed): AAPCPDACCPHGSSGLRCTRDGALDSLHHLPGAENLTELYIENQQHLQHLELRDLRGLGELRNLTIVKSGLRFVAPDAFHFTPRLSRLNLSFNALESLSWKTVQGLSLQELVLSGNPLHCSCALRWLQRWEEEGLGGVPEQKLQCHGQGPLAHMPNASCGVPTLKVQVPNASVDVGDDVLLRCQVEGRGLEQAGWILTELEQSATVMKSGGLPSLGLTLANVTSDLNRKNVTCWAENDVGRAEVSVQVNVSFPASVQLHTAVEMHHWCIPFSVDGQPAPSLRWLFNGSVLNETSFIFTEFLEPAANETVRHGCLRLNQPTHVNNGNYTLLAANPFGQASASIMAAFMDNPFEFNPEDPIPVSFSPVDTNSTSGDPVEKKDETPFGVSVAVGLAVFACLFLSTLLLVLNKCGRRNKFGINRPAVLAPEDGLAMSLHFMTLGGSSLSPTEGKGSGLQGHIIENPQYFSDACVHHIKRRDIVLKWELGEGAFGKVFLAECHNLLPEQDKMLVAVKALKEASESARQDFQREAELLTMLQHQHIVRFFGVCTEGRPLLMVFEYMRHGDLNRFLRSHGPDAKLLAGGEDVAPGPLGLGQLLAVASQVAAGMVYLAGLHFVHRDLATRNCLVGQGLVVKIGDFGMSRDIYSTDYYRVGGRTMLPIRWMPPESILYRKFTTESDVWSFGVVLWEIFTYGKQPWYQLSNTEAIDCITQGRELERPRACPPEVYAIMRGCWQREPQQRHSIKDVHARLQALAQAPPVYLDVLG
The target of data set [6] is Signal transducer and activator of transcription 3 (Homo sapiens) (UniProt P40763). In words: Inhibition of STAT3 activation in human MDA-MB-231 cells assessed as reduction in phosphorylated STAT3 nuclear translocation at 5 uM incubated for 24 hrs by immunofluorescence analysis. The data set is classed as cell-based.
Signal transducer and activator of transcription 3 (Homo sapiens), sequence (P40763 whole entry): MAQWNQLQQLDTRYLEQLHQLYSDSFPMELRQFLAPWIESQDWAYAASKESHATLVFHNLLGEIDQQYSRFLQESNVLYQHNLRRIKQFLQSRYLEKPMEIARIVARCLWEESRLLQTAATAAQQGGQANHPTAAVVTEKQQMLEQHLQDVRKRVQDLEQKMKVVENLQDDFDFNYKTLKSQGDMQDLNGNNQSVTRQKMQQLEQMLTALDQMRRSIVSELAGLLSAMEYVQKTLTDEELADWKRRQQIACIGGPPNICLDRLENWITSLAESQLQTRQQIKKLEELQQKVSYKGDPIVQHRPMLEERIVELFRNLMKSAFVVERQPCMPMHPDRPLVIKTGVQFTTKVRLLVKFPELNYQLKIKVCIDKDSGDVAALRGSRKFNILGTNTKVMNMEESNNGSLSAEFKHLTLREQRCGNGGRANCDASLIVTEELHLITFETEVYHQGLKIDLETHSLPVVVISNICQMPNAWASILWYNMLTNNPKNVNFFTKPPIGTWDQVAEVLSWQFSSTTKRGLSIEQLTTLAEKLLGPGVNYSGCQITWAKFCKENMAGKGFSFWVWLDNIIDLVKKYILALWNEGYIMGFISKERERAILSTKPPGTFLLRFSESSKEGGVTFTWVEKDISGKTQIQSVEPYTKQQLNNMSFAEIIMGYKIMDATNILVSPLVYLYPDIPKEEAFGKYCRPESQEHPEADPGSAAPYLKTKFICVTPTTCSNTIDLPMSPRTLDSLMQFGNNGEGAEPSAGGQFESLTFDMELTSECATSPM
The target in data set [7] is Serine/threonine-protein kinase PLK1 (Homo sapiens, UniProt P53350). In words: Inhibition of PLK1 (unknown origin).
Serine/threonine-protein kinase PLK1, sequence (P53350 whole entry): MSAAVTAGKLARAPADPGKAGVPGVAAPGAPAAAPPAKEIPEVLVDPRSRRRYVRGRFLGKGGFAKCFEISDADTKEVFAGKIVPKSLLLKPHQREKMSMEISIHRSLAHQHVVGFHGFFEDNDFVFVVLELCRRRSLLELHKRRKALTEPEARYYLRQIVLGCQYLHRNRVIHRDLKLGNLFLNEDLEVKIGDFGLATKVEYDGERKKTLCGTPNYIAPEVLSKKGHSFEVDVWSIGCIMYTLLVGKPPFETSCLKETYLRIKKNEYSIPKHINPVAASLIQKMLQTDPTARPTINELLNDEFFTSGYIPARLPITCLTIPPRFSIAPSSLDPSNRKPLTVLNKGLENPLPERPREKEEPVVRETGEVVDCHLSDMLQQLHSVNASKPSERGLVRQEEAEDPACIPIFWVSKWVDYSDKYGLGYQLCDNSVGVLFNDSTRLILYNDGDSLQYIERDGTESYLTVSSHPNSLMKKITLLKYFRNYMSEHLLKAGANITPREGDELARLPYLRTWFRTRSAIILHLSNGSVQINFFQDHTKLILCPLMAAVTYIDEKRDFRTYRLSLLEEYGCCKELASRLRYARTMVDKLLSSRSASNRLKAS
Data set [8] is described as follows: Oral bioavailability in ICR mouse at 20 mg/kg administered as single dose and measured for 8 hrs by LC-MS/MS analysis. The data set is classed as ADME, organism-based. As to conditions: in vivo.
In data set [9] the test system is Rho-associated protein kinase 2 (Homo sapiens), O75116 [D232A]. Briefly: Binding affinity to N-terminal His10-StrepII tagged human ROCK2 D232A mutant catalytic domain (1 to 553 residues) expressed in Sf9 insect cells assessed as change in melting temperature at 50 uM by SYPRO orange dye based thermal shift assay.
Rho-associated protein kinase 2 (Homo sapiens), O75116 [D232A], sequence (O75116 whole entry D232A, the tested form may be a part): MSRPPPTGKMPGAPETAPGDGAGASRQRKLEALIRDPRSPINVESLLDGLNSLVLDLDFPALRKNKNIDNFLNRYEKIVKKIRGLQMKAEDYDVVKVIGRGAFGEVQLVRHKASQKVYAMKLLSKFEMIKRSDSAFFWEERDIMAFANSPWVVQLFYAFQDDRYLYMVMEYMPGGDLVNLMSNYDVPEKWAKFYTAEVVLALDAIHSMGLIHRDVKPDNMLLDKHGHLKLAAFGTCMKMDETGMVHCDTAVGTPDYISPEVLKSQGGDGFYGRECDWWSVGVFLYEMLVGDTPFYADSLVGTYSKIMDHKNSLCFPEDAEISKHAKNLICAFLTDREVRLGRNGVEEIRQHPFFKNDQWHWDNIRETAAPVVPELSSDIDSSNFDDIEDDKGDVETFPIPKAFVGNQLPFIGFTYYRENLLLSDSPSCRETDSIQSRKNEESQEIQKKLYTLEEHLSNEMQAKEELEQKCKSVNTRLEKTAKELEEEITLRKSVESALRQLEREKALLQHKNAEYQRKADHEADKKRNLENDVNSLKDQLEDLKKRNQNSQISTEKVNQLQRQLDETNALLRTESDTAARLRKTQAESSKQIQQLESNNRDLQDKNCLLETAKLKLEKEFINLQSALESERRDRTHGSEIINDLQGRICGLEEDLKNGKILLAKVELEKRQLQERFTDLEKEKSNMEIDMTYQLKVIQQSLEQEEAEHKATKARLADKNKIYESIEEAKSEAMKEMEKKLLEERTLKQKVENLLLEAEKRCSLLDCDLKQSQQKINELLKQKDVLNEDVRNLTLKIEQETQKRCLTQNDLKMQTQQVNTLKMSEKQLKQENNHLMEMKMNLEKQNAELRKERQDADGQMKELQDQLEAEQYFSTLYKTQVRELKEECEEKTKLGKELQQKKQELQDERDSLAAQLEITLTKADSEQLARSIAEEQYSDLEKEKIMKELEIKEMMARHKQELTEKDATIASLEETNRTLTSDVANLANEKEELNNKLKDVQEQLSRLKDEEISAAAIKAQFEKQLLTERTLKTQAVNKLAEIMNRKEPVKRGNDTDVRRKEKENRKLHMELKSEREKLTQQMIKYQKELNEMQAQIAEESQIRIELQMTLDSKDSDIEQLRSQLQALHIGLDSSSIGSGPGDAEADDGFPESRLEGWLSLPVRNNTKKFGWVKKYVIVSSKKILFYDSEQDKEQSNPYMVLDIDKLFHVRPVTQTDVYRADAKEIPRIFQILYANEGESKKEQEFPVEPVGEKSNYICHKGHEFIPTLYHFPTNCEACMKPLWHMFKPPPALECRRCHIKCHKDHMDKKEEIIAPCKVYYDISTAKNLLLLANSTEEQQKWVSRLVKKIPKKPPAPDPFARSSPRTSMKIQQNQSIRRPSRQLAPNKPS
Data set [10] addresses Serine/threonine-protein kinase Chk1 (Homo sapiens) (UniProt O14757). In words: Inhibition of human recombinant CHK1 at 125 nM.
The target in data set [11] is 3-phosphoinositide-dependent protein kinase 1 (Homo sapiens) (UniProt O15530). In words: Inhibition of human recombinant PDK1 at 125 nM.
3-phosphoinositide-dependent protein kinase 1 (Homo sapiens), sequence (O15530 whole entry, looked up): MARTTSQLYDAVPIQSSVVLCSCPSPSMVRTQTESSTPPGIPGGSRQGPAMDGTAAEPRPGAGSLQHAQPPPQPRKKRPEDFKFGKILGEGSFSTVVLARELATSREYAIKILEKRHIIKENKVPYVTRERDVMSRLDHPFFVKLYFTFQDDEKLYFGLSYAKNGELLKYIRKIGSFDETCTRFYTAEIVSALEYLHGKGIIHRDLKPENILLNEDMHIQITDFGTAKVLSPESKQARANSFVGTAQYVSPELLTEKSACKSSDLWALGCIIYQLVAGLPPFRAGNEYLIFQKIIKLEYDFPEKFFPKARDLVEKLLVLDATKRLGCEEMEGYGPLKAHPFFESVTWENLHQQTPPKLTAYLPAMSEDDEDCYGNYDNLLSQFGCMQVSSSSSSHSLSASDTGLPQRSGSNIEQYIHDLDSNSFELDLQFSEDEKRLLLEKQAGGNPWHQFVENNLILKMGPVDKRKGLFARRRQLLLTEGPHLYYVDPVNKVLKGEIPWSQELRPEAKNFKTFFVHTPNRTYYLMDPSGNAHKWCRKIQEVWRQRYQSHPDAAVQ
Data set [12] deals with Signal transducer and activator of transcription 3 (Homo sapiens) (UniProt P40763). In words: Inhibition of STAT3 transcriptional activity in human MDA-MB-231 cells assessed as reduction in MMP2 mRNA level at 5 uM incubated for 24 hrs by qRT-PCR analysis. The data set is classed as cell-based.
Data set [13] has as its system MDA-MB-231. In words: Antimetastatic activity in human MDA-MB-231 cells assessed as appearance of disordered and sparse actin filament at 5 uM incubated for 24 hrs by SEM analysis. It counts as functional, cell-based.
The test system of data set [14] is Rho-associated protein kinase 2 (Homo sapiens), O75116 [M87A]. In words: Binding affinity to N-terminal His10-StrepII tagged human ROCK2 M87A mutant catalytic domain (1 to 553 residues) expressed in Sf9 insect cells assessed as change in melting temperature at 50 uM by SYPRO orange dye based thermal shift assay.
Rho-associated protein kinase 2 (Homo sapiens), O75116 [M87A], sequence (O75116 whole entry M87A, the tested form may be a part): as the sequence (O75116 whole entry D232A, the tested form may be a part) above, with M87A, A232D counted along it
The test system of data set [15] is MDA-MB-231. In words: Upregulation of phosphorylated STAT6 protein expression in human MDA-MB-231 cells at 0.5 uM incubated for 24 hrs by Western blot analysis. It counts as functional, cell-based.
The target in data set [16] is Rho-associated protein kinase 2 (Homo sapiens, UniProt O75116). Briefly: Binding affinity to ROCK2 in human MDA-MB- 231 cells assessed as stabilization at 100 uM and 52 to 61 degreeC incubated for 5 mins by CETSA. The data set is classed as cell-based.
Rho-associated protein kinase 2, sequence (O75116 whole entry, looked up): as the sequence (O75116 whole entry D232A, the tested form may be a part) above, with A232D counted along it
Data set [17] is described as follows: AUC (0 to infinity) in ICR mouse at 15 mg/kg, iv administered as single dose and measured for 8 hrs by LC-MS/MS analysis. Particulars: in vivo. It counts as ADME, organism-based. Also noted: time 8 hrs, dose 15 mg/kg, route iv.
Data set [18] concerns MDA-MB-231. In words: Antimetastatic activity against human MDA-MB-231 cells harboring Luc-mcherry xenografted in BALB/c nude mouse at 15 mg/kg, iv administered once a day for 45 days and measured on day 19,30 and 45 by bioluminescence imaging. As to conditions: time 45.0 day. The data set is classed as functional, organism-based. For orientation: Xenograft models place foreign cells or tissue in a host animal.

In data set [19] the target is Misshapen-like kinase 1 (Homo sapiens) (UniProt Q8N4C8). In words: Inhibition of human recombinant MINK1 at 125 nM.

Activity calls are given as the source filed them. No cut-off for these calls is given here.

Consider one compound from ChEMBL document CHEMBL5385876, “Discovery of unglycosylated indolocarbazoles as ROCK2 isoform-selective inhibitors for the treatment of breast cancer metastasis” (Eur J Med Chem, 2023).

Serine/threonine-protein kinase Chk1 (Homo sapiens), sequence (O14757 whole entry): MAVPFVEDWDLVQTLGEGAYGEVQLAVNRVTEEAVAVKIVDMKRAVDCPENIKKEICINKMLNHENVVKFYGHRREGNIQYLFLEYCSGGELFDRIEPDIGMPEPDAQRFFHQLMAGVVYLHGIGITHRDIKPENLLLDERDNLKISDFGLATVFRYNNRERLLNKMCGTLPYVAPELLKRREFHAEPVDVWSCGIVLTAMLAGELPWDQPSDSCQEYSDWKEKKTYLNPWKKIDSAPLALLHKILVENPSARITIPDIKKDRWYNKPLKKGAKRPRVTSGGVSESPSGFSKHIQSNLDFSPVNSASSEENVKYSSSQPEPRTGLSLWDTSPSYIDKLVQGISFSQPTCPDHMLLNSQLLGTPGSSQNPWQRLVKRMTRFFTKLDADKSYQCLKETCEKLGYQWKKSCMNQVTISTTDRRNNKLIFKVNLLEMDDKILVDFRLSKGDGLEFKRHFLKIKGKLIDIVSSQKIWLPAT

The half-life is how long it takes for the measured level to halve. A low value points to fast loss. By IC50 is commonly meant the point on the concentration scale where inhibition reaches its midpoint. A word on the bioavailability: it is the share of a dose that reaches the circulation, judged against a reference dose that is usually intravenous. High values mean good availability, low ones poor availability. The AUC(0-inf) is the area under the concentration-time curve extrapolated to infinity. Higher therefore signals more exposure. In data set [1], `O=C1NCc2c1c1c3cc(O)ccc3[nH]c1c1[nH]c3ccccc3c21` gave a half-life of 1.51 h. The outcome (in the data set on MDA-MB-231 [2]; with MDA-MB-231 [13]; in the data set on MDA-MB-231 [15]; in data set [16]; in the data set on MDA-MB-231 [18]) was Active. Also, the inhibition entry with MDA-MB-231 [3] and with MDA-MB-231 [4] was “Dose-Dependent Effect” each time. Moreover, the inhibition entry in data set [5], in data set [6], in data set [10], in [11], in data set [12] and in data set [19] was “Active” throughout. Moreover, the IC50 in data set [7] is more than 10 µM. The bioavailability in [8] was less than 1%. Also, the result in [9] and in [14] was inactive. The compound further came in with an AUC(0-inf) in data set [17] of 6250 ng·h/mL.
